From US8227406B2, “Antimicrobial peptides” (Dermagen AB, priority 2006, dated 2012)
“And” between values parts separate entries of the source, which are not always exact repeats. Identical values can stand only once.

Experiments:
[1] = test system: Candida albicans ATCC90028; assay: Radial diffusion assay (RDA), C. albicans; assay type: cell-based; parameters: unit not given here; conditions: Table 1c; for RDA Data (single replicates), C. albicans: individual values
Experimental: (§1) Peptides. Peptides were from Sigma-Genosys, generated by a peptide synthesis platform (PEPscreen®, Custom Peptide Libraries, SigmaGenosys). Yield was ˜1-6 mg, and peptide length 20 amino acids. MALDI-ToF Mass Spectrometry was perfomed on these peptides. Average Crude Purity of 20mers was ˜60%. Peptides were supplied lyophilized and in a 96-well tube rack. Prior to biological testing the PEPscreen peptides were diluted in dH2O (5 mM stock), and stored at −20 C. This stock solution was used for the subsequent experiments.
(§2) Eschericia coli ATCC25922, Staphylococcus aureus ATCC29213, and the fungal isolate Candida albicans ATCC90028 were obtained from the Department of Bacteriology, Lund University Hospital.
(§3) Radial diffusion assays (RDA) were performed essentially as described earlier (Lehrer, R. I., Rosenman, M., Harwig, S. S., Jackson, R. & Eisenhauer, P. (1991) Ultrasensitive assays for endogenous antimicrobial polypeptides, J Immunol Methods. 137, 167-73). Briefly, bacteria (E. coli, S. aureus) or fungi (C. albicans) were grown to midlogarithmic phase in 10 ml of full-strength (3% w/v) trypticase soy broth (TSB) (Becton-Dickinson, Cockeysville, Md.). The microorganisms were washed once with 10 mM Tris, pH 7.4. 4×10^6 bacterial cfu or 1×10^5 fungal cfu was added to 5 ml of the underlay agarose gel, consisting of 0.03% (w/v) TSB, 1% (w/v) low-electroendoosmosistype (Low-EEO) agarose (Sigma, St Louise Mo.) and a final concentration of 0.02% (v/v) Tween 20 (Sigma). The underlay was poured into a Ø 85 mm petri dish. After agarose solidified, 4 mm-diameter wells were punched and 6 μl of test sample was added to each well. Plates were incubated at 37° C. for 3 hours to allow diffusion of the peptides. The underlay gel was then covered with 5 ml of molten overlay (6% TSB and 1% Low-EEO agarose in dH2O). Antimicrobial activity of a peptide is visualized as a clear zone around each well after 18-24 hours of incubation at 37° C. for bacteria and 28° C. for Candida albicans. Other examples of peptides that were screened and found to show an increased effect against the above mentioned microorgansism are listed below. Some of the results are found in table 1c showing the effects against C. albicans, table 1d E. coli and table 1e S. aureus.

[2] = test system: Eschericia coli ATCC25922; assay: Radial diffusion assay (RDA), E. coli; assay type: cell-based, Escherichia coli; parameters: Data (RDA antimicrobial activity, single replicates) / Mean (RDA antimicrobial activity): unit not given here; conditions: E. coli; for Data (RDA antimicrobial activity, single replicates): individual replicate; for Mean (RDA antimicrobial activity): mean of 3
Experimental: as §1, §2, §3

[3] = test system: Staphylococcus aureus ATCC29213; assay: Radial diffusion assay (RDA), S. aureus; assay type: cell-based; parameters: Data (RDA antimicrobial activity, single replicates) / Mean (RDA antimicrobial activity): unit not given here; conditions: S. aureus; for Data (RDA antimicrobial activity, single replicates): individual replicate; for Mean (RDA antimicrobial activity): mean of 3
Experimental: as §1, §2, §3

Q: How did the “RDA Mean, C. albicans” value ([1]; peptide 0.1 μM) turn out when PKRKKKGGKNGKNRRNRKKKNWWW [PKR-21-WWW] was run?
A: 0.00

Q: And the “RDA Data (single replicates), C. albicans” value (shortened to “RDA Data (single replicates)”) ([1]; peptide 0.1 μM)?
A: 0.00

Q: And the “RDA Mean, C. albicans” value ([1]; peptide 0.5 μM)?
A: 0.00

Q: And the “RDA Data (single replicates)” value ([1]; peptide 0.5 μM)?
A: 0.00

Q: And the “RDA Mean, C. albicans” value ([1]; peptide 1 μM)?
A: 0.49

Q: What about the “RDA Data (single replicates)” value ([1]; peptide 1 μM) of the same sequence?
A: 0.55 and 0.42 and 0.51

Q: What about the “RDA Mean, C. albicans” value ([1]; peptide 5 μM) of the same sequence?
A: 1.14

Q: And the “RDA Data (single replicates)” value ([1]; peptide 5 μM)?
A: 1.26 and 1.06 and 1.10

Q: What about the “RDA Mean, C. albicans” value ([1]; peptide 10 μM) of the same sequence?
A: 3.11

Q: What about the “RDA Data (single replicates)” value ([1]; peptide 10 μM) of the same sequence?
A: 3.54 and 2.82 and 2.97

Q: What about the “RDA Mean, C. albicans” value ([1]; peptide 50 μM) of the same sequence?
A: 5.47

Q: And the “RDA Data (single replicates)” value ([1]; peptide 50 μM)?
A: 5.84 and 5.44 and 5.13

Q: And the “RDA Mean, C. albicans” value ([1]; peptide 100 μM)?
A: 6.97

Q: What about the “RDA Data (single replicates)” value ([1]; peptide 100 μM) of the same sequence?
A: 6.69 and 7.04 and 7.19

Q: And the “Data (RDA antimicrobial activity, single replicates)” value ([2]; peptide 0.1 μM)?
A: 0

Q: And the “Mean (RDA antimicrobial activity)” value ([2]; peptide 0.1 μM)?
A: 0.00

Q: What about the “Data (RDA antimicrobial activity, single replicates)” value ([2]; peptide 0.5 μM) of the same sequence?
A: 1.26 and 1.05 and 0.84

Q: What about the “Mean (RDA antimicrobial activity)” value ([2]; peptide 0.5 μM) of the same sequence?
A: 1.05

Q: What about the “Data (RDA antimicrobial activity, single replicates)” value ([2]; peptide 1 μM) of the same sequence?
A: 3.6 and 2.59 and 3.49

Q: And the “Mean (RDA antimicrobial activity)” value ([2]; peptide 1 μM)?
A: 3.23

Q: What about the “Data (RDA antimicrobial activity, single replicates)” value ([2]; peptide 5 μM) of the same sequence?
A: 4.99 and 5.03 and 4.75

Q: And the “Mean (RDA antimicrobial activity)” value ([2]; peptide 5 μM)?
A: 4.92

Q: What about the “Data (RDA antimicrobial activity, single replicates)” value ([2]; peptide 10 μM) of the same sequence?
A: 5.86 and 5.87 and 6.13

Q: What about the “Mean (RDA antimicrobial activity)” value ([2]; peptide 10 μM) of the same sequence?
A: 5.95

Q: And the “Data (RDA antimicrobial activity, single replicates)” value ([2]; peptide 50 μM)?
A: 7.71 and 7.97 and 6.98

Q: What about the “Mean (RDA antimicrobial activity)” value ([2]; peptide 50 μM) of the same sequence?
A: 7.55

Q: And the “Data (RDA antimicrobial activity, single replicates)” value ([2]; peptide 100 μM)?
A: 7.34 and 8.26 and 7.99

Q: What about the “Mean (RDA antimicrobial activity)” value ([2]; peptide 100 μM) of the same sequence?
A: 7.86

Q: What about the “Data (RDA antimicrobial activity, single replicates)” value ([3]; peptide 0.1 μM) of the same sequence?
A: 0

Q: And the “Mean (RDA antimicrobial activity)” value ([3]; peptide 0.1 μM)?
A: 0.00

Q: And the “Data (RDA antimicrobial activity, single replicates)” value ([3]; peptide 0.5 μM)?
A: 0

Q: And the “Mean (RDA antimicrobial activity)” value ([3]; peptide 0.5 μM)?
A: 0.00

Q: And the “Data (RDA antimicrobial activity, single replicates)” value ([3]; peptide 1 μM)?
A: 2.56 and 2.59 and 3.06

Q: And the “Mean (RDA antimicrobial activity)” value ([3]; peptide 1 μM)?
A: 2.74

Q: What about the “Data (RDA antimicrobial activity, single replicates)” value ([3]; peptide 5 μM) of the same sequence?
A: 2.98 and 2.5 and 3.07

Q: And the “Mean (RDA antimicrobial activity)” value ([3]; peptide 5 μM)?
A: 2.85

Q: And the “Data (RDA antimicrobial activity, single replicates)” value ([3]; peptide 10 μM)?
A: 3.53 and 4.06 and 3.83

Q: And the “Mean (RDA antimicrobial activity)” value ([3]; peptide 10 μM)?
A: 3.81

Q: And the “Data (RDA antimicrobial activity, single replicates)” value ([3]; peptide 50 μM)?
A: 4.21 and 5.14 and 4.23

Q: And the “Mean (RDA antimicrobial activity)” value ([3]; peptide 50 μM)?
A: 4.53

Q: What about the “Data (RDA antimicrobial activity, single replicates)” value ([3]; peptide 100 μM) of the same sequence?
A: 4.77 and 5.67 and 5.02

Q: And the “Mean (RDA antimicrobial activity)” value ([3]; peptide 100 μM)?
A: 5.15
